Data on two compounds can be found in ChEMBL document CHEMBL1131315, “Synthesis and anticonvulsant activity of 2(3H)-benzoxazolone and 2(3H)-benzothiazolone derivatives” (J Med Chem, 1998).

Data set [1] in a line: The compound was tested for time of peak effect (TPE) in hours for its activity in mice on ip administration. The data set is classed as ADME, organism-based. The conditions noted are these: mouse, in vivo.
The subject of data set [2] is Mus musculus. Description: Anticonvulsant activity in Maximal electroshock seizure test at 100 mg/kg i.p. in mice. It is filed as functional, organism-based. Also on record: dose 100 mg/kg. (Protection in the maximal electroshock model is a classic sign of anticonvulsant action.)
In data set [3] the test system is Mus musculus. The data set can be described thus: The compound was tested for anticonvulsant activity in Maximal electroshock seizure test (MES) for 4 hr in mice(ip); active at 300 mg/kg. It is filed as functional, organism-based. The arrangement: dose 300 mg/kg.
The test system of data set [4] is Rattus norvegicus. Description: The compound was tested for the effective oral dose to inhibit 50% of the anticonvulsant in rats.(Value in parenthesis indicate 95% confidence limits). It is filed as functional.
Data set [5] deals with Mus musculus. The data set can be described thus: The anticonvulsant activity in subcutaneous pentylenetetrazole seizure test (sc Met) for 4 hr in mice; no activity or no toxicity at 300 mg/kg. It is filed as functional, organism-based. Also on record: dose 300 mg/kg.
A short description of data set [6]: The compound was tested for neurologic toxicity (rotarod) test for 4 hours in mice; active at 300 mg/kg. Also on record: dose 300 mg/kg. The data set is classed as organism-based. The conditions noted are these: mouse, in vivo. In general terms: In the rotarod test animals must keep their balance on a rotating rod.
Data set [7] relates to Rattus norvegicus. Description: The compound was tested per os dose of 30 mg/kg for 4 hours for rotarod toxicity; 0/4. It is filed as functional.
For data set [8], the system named is Rattus norvegicus. The data set can be described thus: The compound was tested per os dose of 30 mg/kg for 2 hours for rotarod toxicity; 0/4. The data set is classed as functional.
For data set [9], the system named is Mus musculus. The data set can be described thus: The compound was determined for the dose (mg/kg) by rotarod test at the time of peak neurotoxic effect in mice on ip administration. It is filed as functional.
The subject of data set [10] is Rattus norvegicus. The data set can be described thus: The compound was tested per os dose of 30 mg/kg for 0.5 hours for maximal electroshock test on rats; MES= 2/4. It is filed as functional.
Data set [11] concerns Mus musculus. The data set can be described thus: Inhibition of s.c. pentylenetetrazole induced seizure in mice following i.p. administration. It is filed as functional.
A short description of data set [12]: The compound was tested for the toxic dose on oral administration. (Value in parenthesis indicate 95% confidence limits). The data set is classed as ADME. The conditions noted are these: rat.
Data set [13] has as its system Mus musculus. The data set can be described thus: The compound was tested for anticonvulsant activity in subcutaneous pentylenetetrazole seizure test (sc Met) for 30 min in mice; active at 100 mg/kg. It is filed as functional, organism-based. The arrangement: dose 100 mg/kg.
Data set [14] can be described thus: The compound was tested for neurologic toxicity (rotarod) test for 30 min in mice; active at 100 mg/kg. It is filed as organism-based. The arrangement: dose 100 mg/kg. The conditions noted are these: mouse, in vivo, 0.5 h.
Data set [15] has as its system Rattus norvegicus. Description: The compound was tested per os dose of 30 mg/kg for 0.25 hours for maximal electroshock test on rats; MES= 4/4. The data set is classed as functional.
Data set [16] deals with Rattus norvegicus. Description: The compound was tested per os dose of 30 mg/kg for 0.5 hours for rotarod toxicity; 0/4. It is filed as functional.
Data set [17] concerns Rattus norvegicus. Description: The compound was tested per os dose of 30 mg/kg for 2 hours for maximal electroshock test on rats; MES= 0/4. The data set is classed as functional.
Data set [18] can be described thus: Protective index value is the ratio between ED50 and TD50. It is filed as functional.
The test system of data set [19] is Rattus norvegicus. The data set can be described thus: The compound was tested per os dose of 30 mg/kg for 0.25 hours for rotarod toxicity; 0/4. The data set is classed as functional.
Data set [20] deals with Mus musculus. The data set can be described thus: The compound was tested to inhibit 50% of induced maximal electroshock seizure in mice on ip administration. It is filed as functional.
Data set [21] relates to Rattus norvegicus. The data set can be described thus: The compound was tested per os dose of 30 mg/kg for 4 hours for maximal electroshock test on rats; MES= 0/4. The data set is classed as functional.
A short description of data set [22]: The compound was tested for time of peak effect (TPE) in hours for its toxicity in mice on ip administration. The note with it: mouse, in vivo. The data set is classed as organism-based.
The subject of data set [23] is Rattus norvegicus. The data set can be described thus: The compound was tested per os dose of 30 mg/kg for 1 hour for maximal electroshock test on rats; MES= 1/4. It is filed as functional.
Data set [24] deals with Rattus norvegicus. Description: The compound was tested per os dose of 30 mg/kg for 1 hour for rotarod toxicity; 0/4. The data set is classed as functional.
Data set [25] concerns the target Sigma non-opioid intracellular receptor 1 (Homo sapiens) (UniProt Q99720). Description: Ratio between the Ki(nM)values of sigma-2 and sigma-1. The data set is classed as functional.
Data set [26] relates to Mus musculus. Description: Time of peak effect in mice following i.p. administration. The data set is classed as functional.
In data set [27] the test system is Mus musculus. The data set can be described thus: The compound was determined for the dose (mg/kg) by rotarod test at the time of peak neurotoxic effect in mice on ip administration. The data set is classed as functional.
A short description of data set [28]: The compound was tested for neurologic toxicity (rotarod) test for 30 min in mice; active at 300 mg/kg. The data set is classed as organism-based. Also on record: dose 300 mg/kg. The note with it: mouse, in vivo, 0.5 h.
The subject of data set [29] is Mus musculus. Description: Anticonvulsant activity in subcutaneous pentylenetetrazole seizure test for 30 min in mice; No activity/toxicity at 300 mg/kg. It is filed as functional, organism-based. Also on record: dose 300 mg/kg.
Data set [30] in a line: The compound was tested for neurologic toxicity (rotarod) test for 4 hours in mice; active at 100 mg/kg. The data set is classed as organism-based. Also on record: dose 100 mg/kg. The note with it: mouse, in vivo.
A further data set has as its target Sigma 2 receptor. Description: Affinity on sigma 2 receptor using [3H]- DTG as radioligand.
Data set [31] deals with Mus musculus. The data set can be described thus: The compound was tested to inhibit 50% of induced maximal electroshock seizure in mice on ip administration. It is filed as functional.

The source made the active and inactive calls. The calls are words filed in the database; no cut-off is given here.

Sequence of Sigma non-opioid intracellular receptor 1 (Homo sapiens) (Q99720 whole entry): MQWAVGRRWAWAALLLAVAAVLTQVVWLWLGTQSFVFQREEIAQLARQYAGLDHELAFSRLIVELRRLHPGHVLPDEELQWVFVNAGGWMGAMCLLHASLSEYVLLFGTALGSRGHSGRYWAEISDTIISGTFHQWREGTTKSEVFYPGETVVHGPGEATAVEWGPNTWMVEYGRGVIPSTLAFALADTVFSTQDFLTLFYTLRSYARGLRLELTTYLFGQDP

What is called ED50 is the midpoint of the dose-response relation. The TD50 is the 50% point of the dose-response relation for the toxic effect studied. As for `Cn1c(=O)oc2ccccc21`, the Activity in [1] worked out at 0.25 h. The MES entry with Mus musculus [2] and in the data set with Mus musculus [3] was “active at 300 mg/kg” throughout. The ED50 in the data set with Rattus norvegicus [4] was determined as 30.6 mg/kg; in the data set on Mus musculus [11], 132 mg/kg; in the data set with Mus musculus [20], 50.2 mg/kg. Besides, the scMet result with Mus musculus [5] and with Mus musculus [13] was “active at 100 mg/kg” throughout. Besides, the Rotarod toxicity entry in data set [6] and in [14] was “active at 100 mg/kg” throughout. In addition, the “No. of animals exhibiting toxicity / Number of animals tested” value in the data set on Rattus norvegicus [7], in the data set with Rattus norvegicus [8], in the data set with Rattus norvegicus [16], in the data set with Rattus norvegicus [19] and in the data set with Rattus norvegicus [24] was 0 throughout. For the same compound, the TD50 is 113 mg/kg in the data set with Mus musculus [9] and over 500 mg/kg in data set [12]. In addition, the Protected/Tested in the data set on Rattus norvegicus [10] is on record as 2; in the data set with Rattus norvegicus [15], 4; in the data set on Rattus norvegicus [17], 0; with Rattus norvegicus [21] it was 0; in the data set with Rattus norvegicus [23] it was 1. Besides, the PI in data set [18] came to 16.4. Moreover, the Toxicity in [22] amounted to 0.25 h.
For orientation: Ki means the dissociation constant of the complex between target and ligand, obtained from inhibition or displacement. Higher therefore signals a looser hold on the target. Take `O=C(c1ccccc1)c1ccc2c(c1)sc(=O)n2CCN1CCCC1`: the Ratio in data set [25] is 4. The MES entry in the data set on Mus musculus [2] and in the data set with Mus musculus [3] was “active at 300 mg/kg” in each case. Besides, the scMet result in the data set on Mus musculus [5] and in the data set with Mus musculus [29] was “No activity or no toxicity at 300 mg/kg” in each case. This compound came in with an Activity in the data set on Mus musculus [26] of 0.25 h. The compound also registered a TD50 in the data set with Mus musculus [27] of 170 mg/kg. The Rotarod toxicity entry in data set [28] and in data set [30] was “active at 100 mg/kg” each time. In addition, the values for the ED50 with Mus musculus [11] and with Mus musculus [31] were over 210 mg/kg and 42.5 mg/kg, respectively. For the same compound, the affinity at Sigma 2 receptor, expressed as Ki, was 225 nM. The Toxicity in data set [22] came out at 0.25 h.
